{"source": "patent US20210236512A1", "about": "(ZARODEX THERAPEUTICS LIMITED, priority 2018, published 2021)", "key": {"[1]": {"tested_on": "Specific antibody titres against Haemophilus influenzae, Tetanus and Pneumococcal capsular polysaccharide", "set-up": "species or system human", "conditions": "in vivo"}, "[2]": {"tested_on": "Immunoglobulins (IgG, IgA, IgM)", "assay": "Immunological assessment of referred patients taking clozapine: serum immunoglobulins", "type": "in vivo, human", "conditions": "for Serum IgG after clozapine stopped: 24 months after discontinuation; for Serum IgG at discontinuation of clozapine: starting value before recovery"}, "[3]": {"tested_on": "circulating B cell subsets", "assay": "Second observational study (interim analysis): circulating B cell subsets by FACS", "type": "in vivo, human"}, "[4]": {"tested_on": "collagen-induced arthritis (CIA)", "assay": "Mouse collagen-induced arthritis (CIA) model: onset, clinical score and paw-swelling", "type": "in vivo, DBA/1 mice", "description": "Adult (age 13-15 weeks) DBA/1 male mice were purchased from Envigo (Horst, Netherlands). […] 1. […] All experiments were approved by the Clinical Medicine Animal Welfare and Ethical Review Body (AWERB) and by the UK Home Office. DBA/1 mice were immunised with bovine type II collagen in CFA and monitored daily for onset of arthritis. […] Controls received vehicle (saline) alone. Treatment of mice commenced in one experiment on day 1 after immunisation and in a second experiment on day 15 after immunisation. Clinical scores and paw-swelling were monitored for 10 days following onset of arthritis. A clinical scoring system was used as follows. Arthritis severity was scored by an experienced, non-blinded investigator as follows: 0=normal, 1=slight swelling and/or erythema, 2=pronounced swelling, 3=ankylosis. […] Data were analyzed by one-way ANOVA with Tukey's or Dunnett's multiple comparison test or two-way ANOVA with Tukey's multiple comparison test as appropriate. All calculations were made using GraphPad Prism software."}, "[5]": {"tested_on": "anti-type II collagen IgG1 and IgG2a", "assay": "Mouse CIA model: specific anti-collagen immunoglobulin by ELISA", "type": "in vivo, DBA/1 mice"}, "[6]": {"tested_on": "total peripheral blood B-cells isolated from healthy donors", "type": "cell-based, human", "conditions": "clozapine 25-350 ng/ml, norclozapine 15-200 ng/ml, haloperidol 2-25 ng/ml", "experimental": "The experiment was performed from four independent donors."}, "[7]": {"tested_on": "class switched memory B cells (CSMB), plasmablasts and other B cell subsets", "conditions": "for CSMB after clozapine stopped: one patient, after 24 months"}, "[8]": {"conditions": "mouse, in vivo"}, "[9]": {"conditions": "Michel. L. et al., 2015; cited from earlier work"}, "[10]": {"conditions": "in vivo; cited from earlier work"}, "[11]": {"tested_on": "B cell subsets in bone marrow", "assay": "Wild type mouse study: bone marrow B cell immunophenotyping by flow cytometry"}, "[12]": {"conditions": "one line per patient of Table 3"}}, "note": "Values joined by “and” are separate entries in the source; they are usually repeats but may differ in a detail not shown here. Identical values can stand only once. “Also recorded” adds a separate entry of the source. Like-named read-outs stand apart in the source and are kept apart here."}
{"compound": "CN1CCN(C2=Nc3cc(Cl)ccc3Nc3ccccc32)CC1", "note": "[Clozapine, clozapine]", "values": [{"measurement": "IgG-Pneumococcus <35 mg/L, percentage of patients", "setting": "[1]", "value": "39.0% and 38.3% and 37.9% and 45.6%"}, {"measurement": "IgG-Pneumococcus <50 mg/L, percentage of patients", "setting": "[1]", "value": "52.1% and 50.6% and 54.4%"}, {"measurement": "IgG-Tetanus <0.1 IU/ml, percentage of patients", "setting": "[1]", "value": "10.6% and 11.5% and 12.3%"}, {"measurement": "IgM-Pneumococcus, mean", "setting": "[1]", "value": "58.5 U/L and 59.8 U/L and 60.4 U/L and 61.6 U/L"}, {"measurement": "Pneumococcal IgM level", "setting": "[1]", "value": 58.5, "unit": "U/ml"}, {"measurement": "Serum IgA and IgM following cessation of clozapine", "setting": "[2]; FIG. 5 / one patient over 24 months", "value": "without clear improvement; also recorded: remained low"}, {"measurement": "Serum IgA, individual referred patient", "setting": "[2]; [12]", "value": "IgA 0.54 g/L; also recorded: IgA < 0.22 g/L; also recorded: IgA 0.49 g/L; also recorded: IgA 0.38 g/L; also recorded: undetectable; also recorded: IgA 0.26 g/L; also recorded: IgA 0.81 g/L; also recorded: IgA 0.63 g/L"}, {"measurement": "Serum IgM, individual referred patient", "setting": "[2]; [12]", "value": "IgM 0.3 g/L; also recorded: IgM < 0.17 g/L; also recorded: IgM 0.41 g/L; also recorded: IgM 0.23 g/L; also recorded: IgM 0.07 g/L; also recorded: IgM 0.18 g/L"}, {"measurement": "Serum IgG, individual referred patient", "setting": "[2]; one line per patient of Table 3 (clozapine dose and duration differ)", "value": "IgG 4.8 g/L; also recorded: IgG < 1.34 g/L; also recorded: IgG 5.24 g/L; also recorded: IgG 2.68 g/L; also recorded: IgG 2.98 g/L; also recorded: IgG 1.2 g/L; also recorded: IgG 3.3 g/L; also recorded: IgG 2.38 g/L; also recorded: IgG 4.24 g/L; also recorded: IgG 6.65 g/L; also recorded: IgG 5.61 g/L; also recorded: IgG 4.79 g/L"}, {"measurement": "Serum IgG after clozapine stopped", "setting": "[2]; one patient", "value": "IgG rose to 5.95 from g/L"}, {"measurement": "Serum IgG after clozapine stopped", "setting": "[2]; one patient, listed as clozapine", "value": 5.95, "unit": "g/L"}, {"measurement": "Serum IgA after clozapine stopped", "setting": "[2]; one patient, after 24 months", "value": 0.29}, {"measurement": "Serum IgM after clozapine stopped", "setting": "[2]; one patient, after 24 months", "value": 0.49, "unit": "after 24 months"}, {"measurement": "Serum IgG after clozapine stopped, intermediate value", "setting": "[2]; one patient, within the 24 months after discontinuation", "value": 4.8, "unit": "g/L"}, {"measurement": "Serum IgG post-discontinuation of clozapine", "setting": "[2]; over three years (FIG. 5)", "value": 5.95, "unit": "g/L"}, {"measurement": "Mean serum IgA", "setting": "[2]; referred patients on clozapine", "value": 0.34, "unit": "g/L"}, {"measurement": "Mean serum IgG", "setting": "[2]; referred patients on clozapine", "value": 3.6, "unit": "g/L"}, {"measurement": "Mean serum IgM", "setting": "[2]; referred patients on clozapine", "value": 0.21, "unit": "g/L"}, {"measurement": "Serum IgG at discontinuation of clozapine", "setting": "[2]", "value": 3.3, "unit": "g/L"}, {"measurement": "Serum IgG at discontinuation of clozapine", "setting": "[2]; listed as clozapine", "value": "3.5 g/L and 3.3 g/L"}, {"measurement": "Overall CD19+ B cell numbers vs control", "setting": "[3]; FIG. 8A-B", "value": "not significantly different"}, {"measurement": "Naive (CD19+ CD27-) B cells as a proportion of total CD19+ B cells", "setting": "[3]; FIG. 9A-C", "value": "Small increase"}, {"measurement": "Overall memory B cell pool or IgMhi IgDlo memory B cell subpopulation", "setting": "[3]; FIG. 10A-C, 12A-C", "value": "without perturbation"}, {"measurement": "Circulating levels of transitional B cells or marginal zone B cells", "setting": "[3]; FIG. 13A-C, 14A-C", "value": "No significant difference"}, {"measurement": "Class-switched memory B cells (CD27+ IgM- IgD- as % B)", "setting": "[3]; P=0.06 vs control, FIG. 11A-C", "value": "Strong trends to a specific reduction"}, {"measurement": "Levels of plasmablasts", "setting": "[3]; P=0.07 vs control clozapine naive, FIG. 15A-C", "value": "Strong trends to reduction"}, {"measurement": "Swelling of the first affected paw", "setting": "[4]; 10 mg/kg from day 1", "value": "reduced"}, {"measurement": "Onset of arthritis post-immunisation", "setting": "[4]; 5 or 10 mg/kg IP daily from day 1 or day 15", "value": "significantly effective in delaying the onset of arthritis"}, {"measurement": "Arthritis onset, treatment from day 1", "setting": "[4]; both doses (5, 10 mg/kg) from day 1", "value": "extremely effective in delaying arthritis onset"}, {"measurement": "Overall clinical score", "setting": "[4]; both doses, administered on day 1", "value": "reduced"}, {"measurement": "Incidence of CIA", "setting": "[4]; most apparent when dosed just after CII immunisation, FIG. 26", "value": "reduces the incidence"}, {"measurement": "Total number of affected paws compared to vehicle control", "setting": "[4]; significant with dosing at D1", "value": "reduced"}, {"measurement": "Reduction of anti-type II collagen IgG1", "setting": "[5]; 10 mg/kg from day 15", "value": "reaching statistical significance"}, {"measurement": "Serum anti-type II collagen IgG2a", "setting": "[5]; 5 or 10 mg/kg from day 1 or day 15, single time point", "value": "no significant impact"}, {"measurement": "Levels of anti-type II collagen IgG1", "setting": "[5]; across all doses tested", "value": "nominal reductions"}, {"measurement": "Functional or phenotypic maturation of activated B cells to an early PC state", "setting": "[6]", "value": "no consistent inhibitory effect"}, {"measurement": "Ability of differentiated ASCs to secrete antibody (total IgM/IgG ELISA)", "setting": "[6]; day 6 and day 9", "value": "no consistent effect"}, {"measurement": "Marginal zone B cell numbers vs healthy control", "setting": "[7]; FIG. 3B", "value": "no significant difference"}, {"measurement": "Total B cell numbers vs CVID and healthy controls", "setting": "[7]; FIG. 3B", "value": "similar"}, {"measurement": "CSMB (reference range 6.5-29.1%), individual referred patient", "setting": "[7]; class switched memory B cells as % of total CD19+ cells, one line per patient of Table 3, listed as clozapine", "value": 1.58, "unit": "%"}, {"measurement": "Overall lymphopenia or B cell lymphopenia", "setting": "[7]; human, in vivo", "value": "no severe overall lymphopenia or B cell lymphopenia"}, {"measurement": "CSMB after clozapine stopped", "setting": "[7]", "value": "CSM Brose to 2.77%"}, {"measurement": "CSMB after clozapine stopped", "setting": "[7]; listed as clozapine", "value": 2.77, "unit": "%"}, {"measurement": "Mean CSMB (reference range 6.5-29.1%)", "setting": "[7]; referred clozapine-treated patients, p<0.0001 vs healthy controls", "value": 1.87, "unit": "%"}, {"measurement": "Effects on thermoregulation", "setting": "[8]", "value": "effects on thermoregulation were also evident"}, {"measurement": "Sedative effects", "setting": "[8]; ip, 5 mg/kg", "value": "Clear dose-related sedative effects"}, {"measurement": "CNS penetration", "setting": "[9]", "value": "high levels of CNS penetration"}, {"measurement": "LD50", "setting": "[10]", "value": 200, "unit": "mg/kg"}, {"measurement": "Pro-B cell fraction in bone marrow", "setting": "[11]; 10 mg/kg IP, 21 days", "value": "without any change"}, {"measurement": "Proportion of pre-pro B cells in bone marrow", "setting": "[11]; 10 mg/kg IP, 21 days", "value": "significant increase"}, {"measurement": "Reduction in the percentage of long-lived plasma cells in the bone marrow compared to control", "setting": "[11]; 5 and 10 mg/kg IP, 21 days, significant", "value": "~30", "unit": "%"}, {"measurement": "B cells in the bone marrow (BM), overall", "setting": "[11]; any dose of clozapine (2.5, 5, 10 mg/kg IP, 21 days)", "value": "No overall reduction"}, {"measurement": "Percentage of immature B cells in bone marrow", "setting": "[11]; clozapine IP, 21 days", "value": "reduction"}, {"measurement": "Pre-B cells in bone marrow", "setting": "[11]; dose-dependent, significant vs control even at 2.5 mg/kg", "value": "reduction"}, {"measurement": "Percentage of pre-B cells that were proliferating", "setting": "[11]; reaching significance for the 5 mg/kg dose", "value": "diminished"}]}
